Several values for one entry are separate records, joined by “and”; a condition that tells them apart may be missing. Equal values may be shown once.

Data set [1] deals with T1, LovD (Aspergillus terreus, UniProt Q9Y7D1).
T1 sequence (Q9Y7D1 1-413): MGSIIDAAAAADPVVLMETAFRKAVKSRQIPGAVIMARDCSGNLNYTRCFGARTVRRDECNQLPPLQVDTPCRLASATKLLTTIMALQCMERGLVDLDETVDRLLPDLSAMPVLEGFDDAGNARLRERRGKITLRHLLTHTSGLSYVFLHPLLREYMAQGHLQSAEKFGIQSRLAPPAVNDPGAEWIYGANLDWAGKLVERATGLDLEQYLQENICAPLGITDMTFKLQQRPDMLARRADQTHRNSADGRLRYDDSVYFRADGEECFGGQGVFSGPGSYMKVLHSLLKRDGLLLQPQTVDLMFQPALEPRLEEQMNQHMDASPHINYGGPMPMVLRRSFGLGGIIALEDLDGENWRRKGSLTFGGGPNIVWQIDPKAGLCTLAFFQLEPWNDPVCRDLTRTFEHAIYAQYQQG
The note with it: label = product formed.

Data set [2] has as its system E. coli BL21(DE3)/pAW31. The experiment in a line: Whole cell biocatalysis with E. coli overexpressing LovD. It is filed as cell-based, Escherichia coli. As to the method: The BL21(DE3)/pAW31 overexpression strain was grown in a shake flask (200 mL) to an OD600 of 1.0, at which time 1 mM IPTG, 0.8 mM monacolin J and 4 mM of either benzoyl-SNAC or benzoyl-SMTG were added to the culture. Expression of LovD and bioconversion was performed at 18° C. The culture was extracted and analyzed for the formation of 8-benzoyl-monacolin J. When supplemented with benzoyl-SNAC, 84% conversion of monacolin J was detected within 20 hours post-induction. The product was lactonized and purified by a single silica-gel chromatography step. The NMR spectra confirmed the regioselective benzoylation of the C8 hydroxyl group as the diagnostic H8 multiplet is shifted downfield to δ 5.61.
Fermentation conditions: 500 mL culture with LB media with 30 mg/L kanamycin. At OD600 of 1.0, cells were concentrated to a final OD600 of 5.0 and induced with 1 mM IPTG. Substrates monacolin J and α-dimethylbutyryl-SNAC were added to a final concentration of 1 mM and 4 mM. At different time points, culture samples were collected, centrifuged, filtered and injected on to HPLC (20 μL). Extraction conditions: When maximum conversion was reached, the broth was acidified to pH of 2.0, extracted with ethyl acetate, dried and redissolved in toluene.
(§1) Whole-cell catalytic synthesis of simvastatin acid from MJ acid and DMB-S-MMP were performed as described (see, e.g., Xie et al., (2007) Appl Environ Microbiol 73: 2054-2060). The E. coli BL21(DE3)/pAW31 and YT2/pAW31 strains were cultured side-by-side for comparison. A single colony of the freshly transformed strains was used to inoculate a 5 mL LB culture supplemented with 35 mg/L kanamycin and grown overnight at 37° C. The next morning, 100 μL of the overnight culture was inoculated into 50 mL cultures containing LB broth, F1 minimal medium and F1 medium supplemented with 0.15 mg/L biotin. Growth rates were monitored by periodically measuring the OD600 reading. When OD600 reached ˜0.5, 100 μM IPTG was added to the culture and expression of LovD was performed at 20° C. for 16 hours. To mimic high density fermentation conditions, the cells were concentrated 10-fold before addition of substrates. Typically, a 14 mL aliquot of the culture was transferred to a 15 mL centrifuge tube and the cells were collected by centrifugation (4° C., 4000 g, 10 minutes). The cell pellet was gently resuspended in 1316 μl of the supernatant, followed by addition of 84 μl of a MJ acid stock solution (250 mM in H2O) (final concentration 15 mM). The concentrated culture was then separated into seven 200 μL samples and 1.2 μL of pure DMB-S-MMP was added to each sample (final concentration ˜25 mM). The culture was then shaken at 300 rpm at room temperature. At each time point, a total extraction was performed by adding 10 μL 20% SDS to lyse the cells, followed by liquid-liquid extraction with 500 μL EA/1% AcOH. The organic phase was removed, evaporated, and redissolved in 50 μL ACN for HPLC analysis. For the BL21(DE3) sample, an additional 1.2 μL aliquot of DMB-S-MMP was added after 12 hours to replenish the hydrolyzed substrates.
The E. coli BL21(DE3)/pAW31 strain was grown in LB medium at 37° C. to an OD600 of 0.5, at which time 100 μM IPTG was added to the culture and expression was performed at RT for 16 hours. A 10 ml culture was transferred to a 15 mL centrifuge tube. The cells were collected by centrifugation (4000 g, 10 minutes). The cell pellet was resuspended in 957 μl of the supernatant. The pH was adjusted to pH 7.9 with 1.0 N NaOH, followed by addition of 33 μl 450 mM MJ (final concentration 15 mM) and 6 μl pure DMB-S-MMP (final concentration ˜25 mM). The culture was then shaken at 300 rpm at room temperature. At each time point, a 4 μL aliquot was removed from the reaction mixture, quenched in 300 μL ethyl acetate containing 1% TFA.

The subject of data set [3] is YT2/pAW31. The experiment in a line: Whole cell biocatalysis with ΔbioH E. coli overexpressing LovD. Type of data set: cell-based, Escherichia coli. Particulars: 15 mM MJ acid, 25 mM DMB-S-MMP, less than 12 hours. As to the method:
as §1, with “The culture was then shaken at 300 rpm at room temperature. At each time point, a total extraction was performed by adding 10 μL 20% SDS to lyse the cells, followed by liquid-liquid extraction with 500 μL EA/1% AcOH. The organic phase was removed, evaporated, and redissolved in 50 μL ACN for HPLC analysis. For the BL21(DE3) sample, an additional 1.2 μL aliquot of DMB-S-MMP was added after 12 hours to replenish the hydrolyzed substrates.” left out

In data set [4] the test system is E. coli. The data set is described as follows: Whole-cell based hydrolysis / stability of thioester in E. coli cultures. Particulars: BL21(DE3)/pAW31 culture, 18° C., 24 hours. Further details: species or system Escherichia coli. As to the method: The selected 57 mutants from the Keio collection together with BW25113, BL21(DE3) and BL21(DE3)/pAW31 were grown to saturation in a 96-well deep well plate in 1 mL LB media at 37° C. Neat DMB-S-MMP (5 μL) was added to each culture with a final concentration of 20 mM. […] The organic phase was dried, redissolved in 20 μL acetonitrile (CH3CN), and 1 μL was spotted on a TLC plate (silica gel 60 F254). The TLC plates were developed with 20% EA in hexane and visualized with iodine.
Analysis of the compounds were also performed with HPLC using an analytical C18 column (Alltech Apollo 5 u, 150 mm×4.6 mm); linear gradient: 60% CH3CN in water (0.1% trifluoroacetic acid [TFA]) to 95% CH3CN in water (0.1% TFA) over 5 min, 95% CH3CN in water (0.1% TFA) for 10 minutes, with a flow rate of 1 mL/min. HPLC retention times (tR) were as follows: MJ lactone form: 3.40 min; DMB-S-MPA: 3.82 min; DMB-S-MMP: 6.80 min; simvastatin lactone form: 8.45 min. Both MJ and simvastatin acids were lactonized before HPLC analysis.
The mutants, wild type […] and BL21(DE3) were grown to saturation in LB broth in a 96-well plate. […] The cultures were acidified, extracted with ethyl acetate, and the organic phases were analyzed by thin layer chromatography (TLC) using a mobile phase (20% ethyl acetate in hexane) that enabled separation of DMB-S-MMP and DMB-S-MPA (FIG. 14A). […]

Substrate in data set [5]: CC[C@H](C)C(=O)O[C@H]1C[C@@H](C)C=C2C=C[C@H](C)[C@H](CC[C@@H]3C[C@@H](O)CC(=O)O3)[C@H]21
The data set is described as follows: LovD catalyzed hydrolysis of lovastatin / simvastatin to monacolin J, HPLC. It is filed as biochemical, Aspergillus terreus. Particulars: other: statin as the only substrate; pH 7.9; 25.0 °C. As to the method: FIG. 5. […] (B) Conversion as a function of time for (⋄) butyryl-CoA (♦) butyryl-SNAC, (▪) butyryl-SMTG. The apparent kcat values reported throughout the text are initial turnover rates in the linear range. (C) Michaelis-Menten plot of LovD catalyzed hydrolysis of lovastatin to monacolin J. The reaction progress is monitored by HPLC. kcat: 0.21±0.01 min^−1; Km: 0.56±0.05 mM.
As shown in FIG. 5A (trace a), 87% conversion of monacolin J to 4 was observed after 10 hours using butyryl-CoA as an acyl donor. […] The observed 87% conversion is likely approaching equilibrium as evident in FIG. 5B. To examine the biochemical nature of the equilibrium conversion, we assayed whether LovD also catalyzes the reverse, hydrolysis reaction.

Substrate in data set [6]: CCC(C)(C)C(=O)SCCC(=O)OC
The experiment in a line: LovD transacylation assay: acyl transfer from acyl thioester to C8 hydroxyl of monacolin J, HPLC. Type of data set: biochemical, Aspergillus terreus. Particulars: other: monacolin J fixed at 2 mM; DMB-S-MMP 0.2-10 mM, 5% DMSO; pH 7.9. As to the method: We first examined if an acyl-CoA can be used as substrate for the transacylation reaction. The uninterrupted gene of LovD was amplified from A. terreus genomic DNA using splice by overlap extension PCR and was inserted into the pET28a expression vector. Overexpression of soluble, N-terminal 6×His fusion LovD was performed in E. coli strain BL21(DE3)/pAW31. LovD was purified using Nickel-NTA affinity column to homogeneity (final yield˜40 mg/L). The substrate monacolin J (1 mM) was prepared through the LiOH hydrolysis of lovastatin and was added to a reaction mixture containing pure LovD (10 μM) and butyryl-CoA (4 mM), which is a commercially available acyl-CoA that best mimics the natural α-methylbutyrate side chain. The reaction mixture was incubated at room temperature, extracted with ethyl acetate and analyzed by HPLC and LC-MS (FIG. 5).
We assayed the tolerance of LovD towards different acyl substituents by performing the transacylation assay with various commercially available acyl-CoAs (Table 1A). […]
Expression and purification of LovD has been previously described in detail (see, e.g., Xie et al., 2006, Chem Biol 13: 1161-1169). […] The initial velocities (ki) of the acyl substrates were determined with 10 μM LovD, 1 mM monacolin J and 4 mM of the thioester. […] The percent conversion of monacolin J to simvastatin was determined by HPLC analysis (C18). […]

Consider `CCC(C)(C)C(=O)OC1CC(O)C=C2C=CC(C)C(CCC(O)CC(O)CC(=O)O)C21` (centres unmarked) [huvastatin], for which, in data set [1], the “apparent turnover rate for synthesis from tetra-ol 7 using the corresponding acyl-thioester” value came to 0.03 min⁻¹.

Regarding `CCC(C)(C)C(=O)SCCC(=O)OC` [DMB-S-MMP, α-dimethylbutyryl-S-methyl-mercaptopropionate], in data set [2] (15 mM monacolin J, 25 mM DMB-S-MMP, cells concentrated 10×, room temperature, 24 hours), the “conversion of monacolin J to simvastatin, whole cell” value was 99% and > 99%. Besides, in data set [3], the “conversion of MJ acid to simvastatin acid, whole cell” value is above 99%.

In the case of `COC(=O)CSC(=O)c1ccccc1` [benzoyl-SMTG], the “stability of acyl donor in E. coli culture” value in data set [4] was “rapidly degraded”. Also, the “conversion of monacolin J (benzoylation) in vivo” value in data set [2] (0.8 mM monacolin J, 4 mM acyl donor, 18° C., within 20 hours post-induction) worked out at 40%.

B1: LovD (Aspergillus terreus) (protein)
chain: T1 sequence (Q9Y7D1 1-413)
notes: 6xHis (N); made in house; host or cells: E. coli BL21(DE3)/pAW31 (pET28a)
By Km is commonly meant the concentration of substrate that gives half-maximal velocity. A word on the kcat: it is the maximal rate divided by the concentration of active sites. With B1, in data set [5], the Km was found to be 560 ± 50 µM and the kcat was determined as 0.0035 ± 0.00017 s⁻¹. Further, the Km in data set [6] was 670 ± 40 µM.

Values taken from patent US9970037B2, “Methods and materials for making simvastatin and related compounds” (The Regents of the University of California, priority 2006, dated 2018).
